Laboratory results: US9139567B2, “Arylpyrazole ethers as inhibitors of leukotriene A4 hydrolase” (Boehringer Ingelheim International GmbH, priority 2011, dated 2015)

Columns and labels:
[1] = target: T1, human LTA4 hydrolase (Homo sapiens, UniProt P09960); test: LTA4H enzyme assay (cleavage of Arg-AMC, fluorescence); assay type: biochemical; settings: LTA4H enzyme 1 nM, Arg-AMC substrate 50 μM, room temperature 1 h
T1 sequence (P09960 1-611): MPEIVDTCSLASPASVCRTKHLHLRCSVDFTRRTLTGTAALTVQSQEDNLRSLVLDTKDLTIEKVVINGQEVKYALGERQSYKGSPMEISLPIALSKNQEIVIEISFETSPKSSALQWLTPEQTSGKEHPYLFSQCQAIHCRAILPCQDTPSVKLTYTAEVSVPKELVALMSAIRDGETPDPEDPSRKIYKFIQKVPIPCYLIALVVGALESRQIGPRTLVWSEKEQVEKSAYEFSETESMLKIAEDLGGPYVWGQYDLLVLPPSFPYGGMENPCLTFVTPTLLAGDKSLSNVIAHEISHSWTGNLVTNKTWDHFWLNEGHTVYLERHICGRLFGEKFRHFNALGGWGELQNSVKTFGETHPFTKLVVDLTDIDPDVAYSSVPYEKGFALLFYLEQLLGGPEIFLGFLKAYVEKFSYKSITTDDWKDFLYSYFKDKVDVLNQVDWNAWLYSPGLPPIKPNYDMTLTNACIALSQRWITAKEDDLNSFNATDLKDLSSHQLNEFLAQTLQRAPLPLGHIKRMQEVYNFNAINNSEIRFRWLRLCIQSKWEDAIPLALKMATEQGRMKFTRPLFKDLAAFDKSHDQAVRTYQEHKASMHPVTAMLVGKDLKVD
Protocol: Compounds are assessed for the ability to interact with human LTA4 hydrolase in an enzymatic assay that measures the ability of the enzyme to cleave the peptide bond of arginyl-aminomethylcoumarin (Arg-AMC). LTA4H Enzyme (1 nM final), Arg-AMC substrate (50 μM final), and compound are combined in a reaction buffer (50 mM Tris-HCl (pH 7.5), 100 mM KCl, 0.5% bovine serum albumin) at room temperature for 1 h. The formation of product is assessed by measuring the fluorescence of aminomethylcoumarin product (excitation wavelength 380 nm/emission wavelength 460 nm).

[2] = test system: LTB4 production in human whole blood; test: LTB4 production inhibition assay in human whole blood (calcimycin-stimulated); assay type: cell-based; settings: heparinized human whole blood, 15 min 37° C., calcimycin 20 μM 30 min, plasma LTB4 by HTRF
Protocol: Compounds of the invention are additionally tested in a human whole blood assay to determine their ability to inhibit the synthesis of LTB4 in a cellular system. Compounds are combined with heparinized human whole blood and incubated for 15 minutes at 37° C. Calcimycin (20 μM final, prepared in phosphate-buffered saline, pH 7.4) is then added and the mixture is incubated for another 30 minutes at 37° C. The samples are centrifuged for 5 min at low speed (1500×g) and the plasma layer is removed. Plasma LTB4 concentrations are then measured using an antibody-based homogenous time-resolved fluorescence method (CisBio, Bedford, Mass.).

## c1cc(-c2ccc(Oc3ccc(OCc4cnc5[nH]ccc5c4)cc3)cc2)[nH]n1 [Example 39, 5-({4-[4-(1H-pyrazol-5-yl)phenoxy]phenoxy}methyl)-1H-pyrrolo[2,3-b]pyridine]
[1]
  IC50: 7.6 nM
[2]
  IC50: ≥ 5000 nM

## c1ccc(COc2ccc(Oc3ccc(-c4ccn[nH]4)cc3)cc2)cc1 [Example 62, 5-{4-[4-(benzyloxy)phenoxy]phenyl}-1H-pyrazole]
[1]
  IC50: 142 nM
[2]
  IC50: ≥ 5000 nM

## O=C1N[C@@H](COc2ccc(Oc3ccc(-c4ccn[nH]4)cc3)cc2)CO1 [Example 15, (4S)-4-({4-[4-(1H-pyrazol-5-yl)phenoxy]phenoxy}methyl)-1,3-oxazolidin-2-one]
[1]
  IC50: 0.3 nM
[2]
  IC50: 150 nM

## c1ccc2sc(COc3ccc(Oc4ccc(-c5ccn[nH]5)cc4)cc3)nc2c1 [Example 64, 2-({4-[4-(1H-pyrazol-5-yl)phenoxy]phenoxy}methyl)-1,3-benzothiazole]
[1]
  IC50: 44.2 nM
[2]
  IC50: ≥ 5000 nM

## c1cc(-c2ccc(Oc3ccc(OCc4cnc[nH]4)cc3)cc2)[nH]n1 [Example 27, 5-{4-[4-(1H-imidazol-5-ylmethoxy)phenoxy]phenyl}-1H-pyrazole]
[1]
  IC50: 2.2 nM
[2]
  IC50: 1840 nM

## c1cc(-c2ccc(Cc3ccc(OCCN4CCOCC4)cc3)cc2)[nH]n1 [Example 25, 4-(2-{4-[4-(1H-pyrazol-5-yl)benzyl]phenoxy}ethyl)morpholine]
[1]
  IC50: 0.5 nM
[2]
  IC50: 123 nM

## CS(=O)(=O)c1ccc(COc2ccc(Oc3ccc(-c4ccn[nH]4)cc3)cc2)cc1 [Example 37, 5-[4-(4-{[4-(methylsulfonyl)benzyl]oxy}phenoxy)phenyl]-1H-pyrazole]
[1]
  IC50: 3.5 nM
[2]
  IC50: 2090 nM

## Cc1ncoc1COc1ccc(Oc2ccc(-c3ccn[nH]3)cc2)cc1 [Example 74, 4-methyl-5-({4-[4-(1H-pyrazol-5-yl)phenoxy]phenoxy}methyl)-1,3-oxazole]
[1]
  IC50: 17.9 nM
[2]
  IC50: 2550 nM

## c1cc(-c2ccc(Oc3ccc(OCC4CCCOC4)cc3)cc2)[nH]n1 (stereo not shown) [Example 83, 5-{4-[4-(tetrahydro-2H-pyran-3-ylmethoxy)phenoxy]phenyl}-1H-pyrazole]
[1]
  IC50: 2.9 nM
[2]
  IC50: 1740 nM

## c1cc(-c2ccc(Oc3ccc(OCc4cocn4)cc3)cc2)[nH]n1 [Example 54, 4-({4-[4-(1H-pyrazol-5-yl)phenoxy]phenoxy}methyl)-1,3-oxazole]
[1]
  IC50: 4.2 nM
[2]
  IC50: ≥ 5000 nM

## O=C1CC[C@H](COc2ccc(Oc3ccc(-c4ccn[nH]4)cc3)cc2)O1 [Example 85, (5R)-5-({4-[4-(1H-pyrazol-5-yl)phenoxy]phenoxy}methyl)dihydrofuran-2(3H)-one]
[1]
  IC50: 0.8 nM
[2]
  IC50: ≥ 5000 nM

## c1ccc(CCOc2ccc(Oc3ccc(-c4ccn[nH]4)cc3)cc2)nc1 [Example 33, 2-(2-{4-[4-(1H-pyrazol-5-yl)phenoxy]phenoxy}ethyl)pyridine]
[1]
  IC50: 5.2 nM
[2]
  IC50: 3360 nM

## c1cc(-c2ccc(Oc3ccc(OCCc4cn[nH]c4)cc3)cc2)[nH]n1 [Example 55, 4-(2-{4-[4-(1H-pyrazol-5-yl)phenoxy]phenoxy}ethyl)-1H-pyrazole]
[1]
  IC50: 7 nM
[2]
  IC50: 2500 nM

## c1cc(-c2ccc(Oc3ccc(OCCN4CCOCC4)cc3)cc2)[nH]n1 [Example 22, 4-(2-{4-[4-(1H-pyrazol-5-yl)phenoxy]phenoxy}ethyl)morpholine]
[1]
  IC50: 0.2 nM
[2]
  IC50: 179 nM

## c1cc(-c2ccc(Oc3ccc(OCCc4cnoc4)cc3)cc2)[nH]n1 [Example 72, 4-(2-{4-[4-(1H-pyrazol-5-yl)phenoxy]phenoxy}ethyl)isoxazole]
[1]
  IC50: 6.1 nM
[2]
  IC50: 2550 nM

## c1cc(-c2ccc(Oc3ccc(OCc4ccno4)cc3)cc2)[nH]n1 [Example 52, 5-({4-[4-(1H-pyrazol-5-yl)phenoxy]phenoxy}methyl)isoxazole]
[1]
  IC50: 4.1 nM
[2]
  IC50: 2600 nM

## c1cnc2c(c1)CCC2Oc1ccc(Oc2ccc(-c3ccn[nH]3)cc2)cc1 (stereo not shown) [Example 47, 7-{4-[4-(1H-pyrazol-5-yl)phenoxy]phenoxy}-6,7-dihydro-5H-cyclopenta[b]pyridine]
[1]
  IC50: 82.4 nM
[2]
  IC50: ≥ 5000 nM

## Cc1nccn1CCOc1ccc(Oc2ccc(-c3ccn[nH]3)cc2)cc1 [Example 42, 5-(4-{4-[2-(2-methyl-1H-imidazol-1-yl)ethoxy]phenoxy]phenyl)-1H-pyrazole]
[1]
  IC50: 0.3 nM
[2]
  IC50: 172 nM

## c1cc(-c2ccc(Oc3ccc(OCc4cncs4)cc3)cc2)[nH]n1 [Example 70, 5-({4-[4-(1H-pyrazol-5-yl)phenoxy]phenoxy}methyl)-1,3-thiazole]
[1]
  IC50: 4.9 nM
[2]
  IC50: 2390 nM

## Cn1ccnc1COc1ccc(Oc2ccc(-c3ccn[nH]3)cc2)cc1 [Example 26, 5-(4-{4-[(1-methyl-1H-imidazol-2-yl)methoxy]phenoxy}phenyl)-1H-pyrazole]
[1]
  IC50: 1.2 nM
[2]
  IC50: 2110 nM

## c1cc(-c2ccc(Oc3ccc(OCc4cnco4)cc3)cc2)[nH]n1 [Example 78, 5-({4-[4-(1H-pyrazol-5-yl)phenoxy]phenoxy}methyl)-1,3-oxazole]
[1]
  IC50: 2.8 nM
[2]
  IC50: 1650 nM

## c1cnc(COc2ccc(Oc3ccc(-c4ccn[nH]4)cc3)cc2)cn1 [Example 44, 2-({4-[4-(1H-pyrazol-5-yl)phenoxy]phenoxy}methyl)pyrazine]
[1]
  IC50: 1.1 nM
[2]
  IC50: 766 nM

## CC(CCOc1ccc(Oc2ccc(-c3ccn[nH]3)cc2)cc1)n1cccn1 (stereo not shown) [Example 51, 1-(1-methyl-3-{4-[4-(1H-pyrazol-5-yl)phenoxy]phenoxy}propyl)-1H-pyrazole]
[1]
  IC50: 4 nM
[2]
  IC50: 3110 nM

## c1coc(COc2ccc(Oc3ccc(-c4ccn[nH]4)cc3)cc2)c1 [Example 30, 5-{4-[4-(2-furylmethoxy)phenoxy]phenyl}-1H-pyrazole]
[1]
  IC50: 65.6 nM
[2]
  IC50: ≥ 5000 nM

## c1ccc2[nH]c(NCCOc3ccc(Oc4ccc(-c5ccn[nH]5)cc4)cc3)nc2c1 [Example 41, N-(2-{4-[4-(1H-pyrazol-5-yl)phenoxy]phenoxy}ethyl)-1H-benzimidazol-2-amine]
[1]
  IC50: 0.2 nM
[2]
  IC50: 673 nM

## O=C1CC[C@@H](Oc2ccc(Oc3ccc(-c4cc[nH]n4)cc3)cc2)CN1 [Example 14, (5R)-5-{4-[4-(1H-pyrazol-3-yl)phenoxy]phenoxy}piperidin-2-one]
[1]
  IC50: 0.3 nM
[2]
  IC50: 178 nM

## Cn1nc(COc2ccc(Oc3ccc(-c4ccn[nH]4)cc3)cc2)cc1-c1ccco1 [Example 57, 5-(2-furyl)-1-methyl-3-({4-[4-(1H-pyrazol-5-yl)phenoxy]phenoxy}methyl)-1H-pyrazole]
[1]
  IC50: 11 nM
[2]
  IC50: ≥ 5000 nM

## c1cnn(-c2ccc(COc3ccc(Oc4ccc(-c5ccn[nH]5)cc4)cc3)cn2)c1 [Example 80, 2-(1H-pyrazol-1-yl)-5-({4-[4-(1H-pyrazol-5-yl)phenoxy]phenoxy}methyl)pyridine]
[1]
  IC50: 1.9 nM
[2]
  IC50: 1650 nM

## O=C1CC[C@H](Oc2ccc(Oc3ccc(-c4ccn[nH]4)cc3)cn2)CN1 [Example 6, (5S)-5-({5-[4-(1H-pyrazol-5-yl)phenoxy]pyridin-2-yl}oxy)piperidin-2-one]
[1]
  IC50: 3.5 nM
[2]
  IC50: 1080 nM

## c1ccc2[nH]c(COc3ccc(Oc4ccc(-c5ccn[nH]5)cc4)cc3)nc2c1 [Example 28, 2-({4-[4-(1H-pyrazol-5-yl)phenoxy]phenoxy}methyl)-1H-benzimidazole]
[1]
  IC50: 1.4 nM
[2]
  IC50: ≥ 5000 nM

## c1cc(-c2ccc(Oc3ccc(OCCC4CCOCC4)cc3)cc2)[nH]n1 [Example 82, 5-(4-{4-[2-(tetrahydro-2H-pyran-4-yl)ethoxy]phenoxy}phenyl)-1H-pyrazole]
[1]
  IC50: 7.9 nM
[2]
  IC50: 2670 nM

## c1ccc(CCOc2ccc(Oc3ccc(-c4ccn[nH]4)cc3)cc2)cc1 [Example 66, 5-{4-[4-(2-phenylethoxy)phenoxy]phenyl}-1H-pyrazole]
[1]
  IC50: 959 nM
[2]
  IC50: ≥ 5000 nM

## CC(Oc1ccc(Oc2ccc(-c3ccn[nH]3)cc2)cc1)c1ccncc1 (stereo not shown) [Example 48, 4-(1-{4-[4-(1H-pyrazol-5-yl)phenoxy]phenoxy}ethyl)pyridine]
[1]
  IC50: 16.9 nM
[2]
  IC50: 3920 nM

## O=C1NCC(COc2ccc(Oc3ccc(-c4ccn[nH]4)cc3)cc2)O1 (stereo not shown) [Example 11, 5-({4-[4-(1H-pyrazol-5-yl)phenoxy]phenoxy}methyl)-1,3-oxazolidin-2-one]
[1]
  IC50: 1.3 nM
[2]
  IC50: 573 nM

## c1cc(CCOc2ccc(Oc3ccc(-c4ccn[nH]4)cc3)cc2)ccn1 [Example 40, 4-(2-{4-[4-(1H-pyrazol-5-yl)phenoxy]phenoxy}ethyl)pyridine]
[1]
  IC50: 3.2 nM
[2]
  IC50: 3120 nM
